In experiment [1] the target is T1, TetR (Escherichia coli, UniProt P04483).
T1 construct: His tag; made in house; host or cells: E. coli BL21 Star (DE3)
The experiment can be described thus: TetR biosensor, lateral flow readout. It is filed as biochemical. As to conditions: for second (test) band on lateral flow strip: TetR biosensor, 20-nt gRNA, 30 minutes cleavage. The protocol:
(§1) DNA/TF/small molecule samples were incubated and added to Cas12a reactions containing 106 nM Cas12a, 100 nM gRNA, and 200 nM FAM-[…]-Biotin (SEQ ID NO: 38) or 5′FAM-TTTT(internal T-Biotin)TTTTT-BHQ1 (SEQ ID NO: 38) reporter (IDT). The Cas12a concentration was increased to speed up the reaction time. Samples were incubated for 30 minutes at 37° C. on a thermocycler block. The 10 μl samples were added directly to the dipstick, HybriDetect Universal Lateral Flow Assays from Milenia Biotec (MGHD1) and placed in 100 μl of LF running buffer containing 50% PEG 800. PEG was used to slow capillary flow down, giving reporter strands more time to interact with gold nanoparticle-antibody conjugates before flowing down the assay. This provided cleaner negative results. After 2 minutes, dipsticks were removed and imaged using a cellphone camera.
The trans-cleavage capabilities of Cas12a can cleave any single-stranded DNA in the system, enabling a variety of chemical modifications to be used in the single-stranded reporter. This feature allows for implementation of a visible paper-based lateral flow readout system using reporters with FAM and biotin modifications on either end (19, 21-26). When paired with a lateral flow assay, the fully intact reporter binds to the first line (control line) along with an attached gold nanoparticle/antibody complex, and can be visualized, as shown in FIG. 10. When Cas12a enzyme is active, the reporter is cleaved and the portion containing the gold nanoparticle flows down the assay and can be visualized by the formation of the second band. Thus, the presence of two bands is used to indicate the presence of the target small molecule.
Next, the lateral flow readout was tested by introducing aTc, Doxy, and IPTG to the TetR biosensor. The samples were incubated with Cas12a cleavage mixture containing the 20-nt gRNA. […] Thus, the lateral flow assay can provide a visual readout mechanism for the biosensor, and the assay remains small-molecule specific.
To ensure the biosensor could provide adequate sensitivity, limit of detection experiments were repeated using TetR for detecting aTc and Doxy on the lateral flow assays.

The target of experiment [2] is T1, TetR. The experiment can be described thus: TetR biosensor, Cas12a cleavage reaction with fluorescence readout, detection of aTc and Doxy. It is filed as biochemical. Here is the method: (§2) Target and nontarget strands (NTS) were annealed at a 1:2 ratio in 1× TAE+12.5 mM Mg^2+ for 5 minutes at 95° C., then snap cooled. To form the DNA/TF complex, 100 nM dsTarget complexes were incubated with 10 μM corresponding transcription factors (unless otherwise stated) for 15 minutes at 37° C. in incubation buffer (40 mM Tris-HCl 8 mM MgCl2, 20 mM NaCl, pH 8). Small molecules were added next, following the same incubation procedure. Prior to addition, small molecules were suspended in water, DMSO or ethanol.
(§3) To monitor small molecule detection, 2 μl of the DNA/TF or DNA/TF/SM mixture were added to 10 μl total Cas12a cleavage reaction. […] Cleavage reactions were then immediately added to a microplate such as a Corning 384-well Black Flat Bottom Plates and read on a SynergyNeo2 Biotek fluorescence plate reader. Fluorescence measurements were taken with 487 nm excitation, 528 nm emission from the bottom of the plate for 2 hours. Fluorescence curves show raw fluorescence images unless otherwise stated.
(§4) Dose response curves were fit on OriginLab graphing software using equation 1. A1 is the minimum asymptote, A2 is the maximum asymptote, X is the log of a given dosage, and p is the hill slope. The center of the curve is equal to Log x0, so the half response or EC 50=10^Logx0.
The limit of detection for the biosensor was tested by introducing a range of small molecules from 4 nM to 40 μM using a 50:1 TetR dimer/dsDNA ratio (FIGS. 3E and F). […] The dose response curve of the biosensor was further assessed using the EC 50 value, which represents the concentration of a drug or analyte needed to reach a half maximum output signal based on a protein-analyte interaction.
Detection limits were also considered using the standard definition of LOD which considers LOD to be equal to the fluorescence of the blank sample plus three times the standard deviation (Table 7 and Table 8). The detection limit was determined using the equation (39):
Here, Sbl is equal to the mean of the SM negative samples and kSbl is the number of standard deviations of the negative sample added. For the Doxy experiments, 8 replicates were run and k=3. […] The detection limit (bolded) was then determined as the lowest concentration corresponding to a fluorescence signal great than Sm (the mean of small molecule negative samples+3× the standard deviation).

The next experiment concerns the target T2, CymR (Pseudomonas putida, UniProt O33453, A171V/S110G).
T2 construct: His tag; made in house
Format: biochemical. As to conditions: CymR biosensor, slope of kinetic curves. The protocol: as §2, §3, §4

A further experiment has as its system Cas12a. The experiment can be described thus: Toxicity study for DMSO on Cas12a activation. Format: biochemical, Lachnospiraceae bacterium. As to conditions: 0.03% DMSO. The protocol: The toxicity of solvents on Cas12a activation was tested by titrating in DMSO and monitoring the fluorescence output over two hours. A more significant decrease in activation was observed above 1% DMSO.

Another experiment concerns MphR. The experiment in a line: MphR biosensor, lateral flow readout for erythromycin. It is filed as biochemical. As to conditions: 15 minutes of cleavage. Here is the method:
as §1, with “Samples were incubated for 30 minutes at 37° C. on a thermocycler block.” left out
The robustness of the lateral flow readout scheme was further tested using the TF MphR to detect the antibiotic erythromycin. […] A closer look at the mean pixel intensity of the bands for the assays for 1, 0.5, 0.25, 0.05 μM and no SM confirm a decrease below 1 μM but show a readable signal in the ˜100 nM range (FIG. 14B). Lateral flow readout was also tested using the LacI-IPTG biosensor. A higher ratio between the IPTG+ and − samples were seen even with high concentrations of Lad, but a discernible difference in SM+ samples was still visualized (FIG. 15).

Setting [3] is: EC 50, 10 μM TetR, 50:1 TetR dimer/dsDNA ratio, small molecule 4 nM to 40 μM.
Setting [4] is: EC:50, 5 nM dsDNA, 500 nM TF (TetR), 24 nt gRNA, 1 h.
The mark [5] stands for this setting: EC:50, 50 nM dsDNA, 5 μM TF (TetR), 20 nt gRNA, 30 minutes of cleavage.
[6] abbreviates: EC:50, 50 nM dsDNA, 5 μM TF (TetR), 24 nt gRNA, 1 h.
Setting [7] is: EC:50, 100 nM dsDNA, 2 μM TF (TetR), 1 h.
Setting [8] is: EC:50, 100 nM dsDNA, 10 μM TF (TetR), 1 h, 50-fold TetR dimer:DNA.
The mark [9] stands for this setting: EC:50, 100 nM dsDNA, 20 μM TF (TetR), 1 h.
Setting [10] is: 10 μM TetR, 50:1 TetR dimer/dsDNA ratio.

Each structure is given as a SMILES string. Where “and” joins values, the source holds several entries; their conditions need not be identical. Identical values can stand only once. Counter-ions that a name gives are not always drawn. Where only a bound is given, the exact number is not on record here.

T1 sequence (P04483 whole entry): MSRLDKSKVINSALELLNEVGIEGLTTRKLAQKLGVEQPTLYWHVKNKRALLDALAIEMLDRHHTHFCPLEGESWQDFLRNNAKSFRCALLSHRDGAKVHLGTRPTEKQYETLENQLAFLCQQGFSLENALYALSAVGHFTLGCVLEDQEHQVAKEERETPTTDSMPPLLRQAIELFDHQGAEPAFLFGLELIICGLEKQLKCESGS
T2 sequence (O33453 whole entry S110G/A171V): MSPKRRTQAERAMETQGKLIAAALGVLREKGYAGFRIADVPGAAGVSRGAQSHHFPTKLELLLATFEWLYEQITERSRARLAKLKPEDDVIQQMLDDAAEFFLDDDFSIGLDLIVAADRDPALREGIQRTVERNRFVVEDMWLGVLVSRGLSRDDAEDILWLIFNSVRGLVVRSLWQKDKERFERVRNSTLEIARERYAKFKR

Regarding `C[C@H]1c2cccc(O)c2C(=O)C2=C(O)[C@]3(O)C(=O)C(C(N)=O)=C(O)[C@@H](N(C)C)[C@@H]3[C@@H](O)[C@@H]21` [Doxy, doxycycline], the EC50 (as a rule, the concentration giving half of the maximal effect) on TetR [1] was 27 nM; on TetR [2] (setting [3]) it was 766 nM; at TetR [2] (setting [4]), 87 nM and 88 nM; at TetR [2] (setting [5]), 430 nM; on TetR [2] (setting [6]), 1590 nM; at TetR [2] (setting [7]) it was 110 nM. For the same molecule, the EC50 on TetR [2] (setting [8]) was 950 nM; on TetR [2] (setting [9]), 4000 nM and 4220 nM.
For `CC(C)c1ccc(C(=O)O)cc1` [cuminic acid], the “linear region of cleavage rate vs SM concentration (calibration curve)” value at CymR is at most 50 µM.
Consider `Cc1c2c(c(O)c3c(O)cccc13)C(=O)[C@]1(O)C(=O)C(C(N)=O)=C(O)[C@@H](N(C)C)[C@@H]1C2` [aTc, anhydrotetracycline-HCl], for which the EC50 at TetR [1] was determined as 380 nM; on TetR [2] (setting [3]), 4230 nM; at TetR [2] (EC:50, 5 nM dsDNA, 500 nM TF (TetR), 20 nt gRNA, 30 minutes of cleavage) it was 51 nM; at TetR [2] (setting [4]) it was 50 nM; at TetR [2] (setting [5]), 1510 nM; on TetR [2] (setting [6]), 1770 nM. In addition, the EC50 worked out at 840 nM at TetR [2] (setting [7]), 4420 nM at TetR [2] (setting [8]) and 10600 nM on TetR [2] (setting [9]). The “second (test) band on lateral flow strip” value at TetR [1] was “strong second band”. Further, the “concentration showing a discernible signal” value at TetR [1] (lateral flow, 30 minutes of cleavage) is 400 nM. Moreover, the “concentration at complete loss of signal” value on TetR [2] (setting [10]) came out at 0.4 µM. Also, the “concentration giving maximum (near maximum) fluorescence output” value at TetR [2] (setting [10]) came to 10 µM. For the same molecule, the “Fluorescence Mean” value on TetR [2] (20 nt gRNA, Concentration 0.005 (unit not given)) turned out to be 21303.25; at TetR [2] (20 nt gRNA, Concentration 0.01 (unit not given)), 21302; at TetR [2] (20 nt gRNA, Concentration 0.05 (unit not given)), 24918.25; on TetR [2] (20 nt gRNA, Concentration 0.1 (unit not given)) it was 32806; on TetR [2] (20 nt gRNA, Concentration 1 (unit not given)) it was 40622.5; at TetR [2] (24 nt gRNA, Concentration 0.005 (unit not given)) it was 9199.5. Besides, the “Fluorescence Mean” value was 8795 at TetR [2] (24 nt gRNA, Concentration 0.01 (unit not given)); 12129.5 on TetR [2] (24 nt gRNA, Concentration 0.05 (unit not given)); 20059 at TetR [2] (24 nt gRNA, Concentration 0.1 (unit not given)); 30309.5 at TetR [2] (24 nt gRNA, Concentration 1 (unit not given)).
`C[S+](C)[O-]` [DMSO]: the “effects on Cas12a cleavage at experimental levels” value in the experiment on Cas12a is given as “not detrimental”.
Turning to `CC[C@H]1OC(=O)[C@H](C)[C@@H](O[C@H]2C[C@@](C)(OC)[C@@H](O)[C@H](C)O2)[C@H](C)[C@@H](O[C@@H]2O[C@H](C)C[C@H](N(C)C)[C@H]2O)[C@](C)(O)C[C@@H](C)C(=O)[C@H](C)[C@@H](O)[C@]1(C)O` [Erythromycin], the “concentration range with readable signal (mean pixel intensity)” value with MphR is on record as around 100 nM.
With `CC(C)S[C@@H]1O[C@H](CO)[C@H](O)[C@H](O)[C@H]1O` [IPTG, isopropyl β-D-1-thiogalactopyranoside], the “second (test) band on lateral flow strip” value on TetR [1] was “little to no banding”.

These data come from patent US20240094229A1, “CRISPR-CAS /TRANSCRIPTION FACTOR-BASED COMPETITION ASSAY FOR DETECTION OF MOLECULAR ANALYTES” (Arizona Board of Regents on Behalf of Arizona State …, priority 2022, published 2024).
